Assay results from US20080206866A1, “Reagency and Method for Preventing Time-Dependent Expression in Biological Cells” (ANDNAGEN AG, priority 2005, published 2008).

What was measured:
[1] = test system: tumour-associated transcripts GA733-2, MUC-1 and Her-2; assay: Detection of time-dependent induced transcription in treated blood samples of healthy donors (immunomagnetic cell selection, RT-PCR, Bioanalyser); assay type: cell-based, human; details: healthy donor
From the text: (§1) In all the examples which are represented subsequently, an analysis was implemented as described in EP 02 732 726. Antibodies were thereby coupled to magnetic particles for cell selection. The antibodies represented subsequently in Table 1 were thereby used as antibodies.
(§2) The magnetic particles were thereby used in a concentration of 4×10^8 beads/ml (CELLection™ Pan Mouse IgG Kit, company Dynal). The ratios between the antibody concentration and the antibodies coupled thereto are reproduced in Table 2.
The magnetic particles prepared in this way were mixed in equal parts and added to the blood (EDTA) in 100 μl PBS per 5 ml sample.
After 30 min incubation in an overhead agitator, the magnetic particles which were present possibly as cell-antibody magnetic particle complexes, were washed three times with PBS by means of a magnetic particle concentrator (MPC®-S, company Dynal) and the adhering cells were treated subsequently corresponding to the mRNA isolation protocol described subsequently. […]
(§3) The thus produced amplificates of the cDNA were separated electrophoretically by means of a bioanalyser 2100 (company Agilent). […] Peaks with a level of <4.0 are evaluated as negative. Peaks, the level of which is 4.0 to 6.7, can be evaluated neither as positive nor as negative. In this way FIGS. 1 to 6 were produced and evaluated.

tumour cell line Calu-3 = assay: Detection of 2 inoculated Calu-3 tumour cells in treated blood samples; assay type: cell-based, human; details: 2 Calu-3 cells
From the text: as §1, §2
The magnetic particles prepared in this way were mixed in equal parts and added to the blood (EDTA) in 100 μl PBS per 5 ml sample. […]
as §3, with “evaluated. […]” for “evaluated.”
Tracks 1, 4 and 7 thereby show a ladder with size markers, tracks 2, 5 and 8 show the amplified DNA fragments of the tumour-associated transcripts to be detected in a healthy donor and of an internal control of β-actin. […]

[2] = 0.01% (w/v) DU, 0 h, 24 h and 48 h at 4° C.
[3] = 0.025%, 0.05% and 0.075% (w/v) bronopol, 24 h at 4° C.

With O=C(NCO)N(CO)C1(CO)C(=O)NC(=O)N1CO (stereo not shown) [DU, diazolidinyl urea] the “analysis result for illegitimate time-dependent induced expression, samples without inoculated cells” value [1, 2] was “negative” and the “detection of tumour-associated transcripts of inoculated cells” value (tumour cell line Calu-3; [2]) was “detected unequivocally”.

In the case of O=[N+]([O-])C(Br)(CO)CO [bronopol, 2-bromo-2-nitropropane-1,3-diol], the “analysis result for illegitimate time-dependent induced expression” value [1, 3] is reported as “negative” and the “detection of tumour-associated transcripts of inoculated cells” value (tumour cell line Calu-3; [3]) is reported as “detected unequivocally”.
